Data from ChEMBL document CHEMBL1153831, “Azithromycin blocks quorum sensing and alginate polymer formation and increases the sensitivity to serum and stationary-growth-phase killing of Pseudomonas aeruginosa and attenuates chronic P. aeruginosa lung infection in Cftr(-/-) mice” (Antimicrob Agents Chemother, 2007).
The source made the active and inactive calls. No cut-off for these calls is given here.

Key:
Pseudomonas aeruginosa [1] = test: Inhibition of quorum sensing-regulated elastase production in Pseudomonas aeruginosa NH57388A mucoid isolate harboring GFP-fused […] lasB gene assessed as enzyme activity per cell at 2 ug/mL after 24 hrs relative to control; type: functional
Pseudomonas aeruginosa [2] = test: Inhibition of quorum sensing-regulated elastase production in Pseudomonas aeruginosa NH57388A mucoid isolate harboring GFP-fused […] lasB gene assessed as enzyme activity per cell at 4 ug/mL after 24 hrs relative to control; type: functional
Pseudomonas aeruginosa [3] = test: Inhibition of quorum sensing-regulated elastase production in Pseudomonas aeruginosa NH57388A mucoid isolate harboring GFP-fused […] lasB gene assessed as enzyme activity per cell at 8 ug/mL after 24 hrs relative to control; type: functional
Pseudomonas aeruginosa [4] = test: Inhibition of quorum sensing-regulated chitinase production in Pseudomonas aeruginosa NH57388A mucoid isolate harboring GFP-fused […] lasB gene assessed as enzyme activity per cell at 2 ug/mL after 24 hrs relative to control; type: functional
Pseudomonas aeruginosa [5] = test: Inhibition of quorum sensing-regulated chitinase production in Pseudomonas aeruginosa NH57388A mucoid isolate harboring GFP-fused […] lasB gene assessed as enzyme activity per cell at 4 ug/mL after 24 hrs relative to control; type: functional
Pseudomonas aeruginosa [6] = test: Inhibition of quorum sensing-regulated chitinase production in Pseudomonas aeruginosa NH57388A mucoid isolate harboring GFP-fused […] lasB gene assessed as enzyme activity per cell at 8 ug/mL after 24 hrs relative to control; type: functional
Pseudomonas aeruginosa [7] = test: Inhibition of quorum sensing-regulated pyocyanin production in Pseudomonas aeruginosa NH57388A mucoid isolate harboring GFP-fused […] lasB gene assessed as enzyme activity per cell at 2 ug/mL after 24 hrs relative to control; type: functional
Pseudomonas aeruginosa [8] = test: Inhibition of quorum sensing-regulated pyocyanin production in Pseudomonas aeruginosa NH57388A mucoid isolate harboring GFP-fused […] lasB gene assessed as enzyme activity per cell at 4 ug/mL after 24 hrs relative to control; type: functional
Pseudomonas aeruginosa [9] = test: (§1) Antimicrobial activity against Pseudomonas aeruginosa NH57388A mucoid isolate harboring GFP-fused […] lasB gene infected in ftr-tml-Unc-TgN(FABPCFTR) cystic fibrosis mouse assessed as mortality at 500 mg/kg, po administered 24 hrs postinfection daily once for 5 days measured after 7 days postinfection; type: functional
Pseudomonas aeruginosa [10] = test: as §1, with “activity in” for “activity against”, “mouse lungs” for “mouse”, “as median alginate content in lungs” for “as mortality”, “hrs after infection” for “hrs postinfection”; type: functional
Pseudomonas aeruginosa [11] = test: as §1, with “activity in” for “activity against”, “as frequency of lung abscesses” for “as mortality”, “hrs after infection” for “hrs postinfection”; type: functional
Pseudomonas aeruginosa [12] = test: (§2) Antimicrobial activity in Pseudomonas aeruginosa NH57388A mucoid isolate harboring GFP-fused avian sarcoma virus lasB gene infected in ftr-tml-Unc-TgN(FABPCFTR) cystic fibrosis mouse lung assessed as debris-like granular material surrounding polymorphonuclear leukocytes at 500 mg/kg, po administered 24 hrs after infection daily once for 5 days measured after 7 days postinfection by histopathology; type: functional, organism-based; set-up: dose 500 mg/kg
Pseudomonas aeruginosa [13] = test: as §2, with “fibrous spongy-like” for “debris-like granular”; type: functional, organism-based; set-up: dose 500 mg/kg
Pseudomonas aeruginosa [14] = test: as §2, with “scattered residues of alginate without bacteria” for “debris-like granular material surrounding polymorphonuclear leukocytes”; type: functional, organism-based; set-up: dose 500 mg/kg
[15] = Drug level in Cftr-tml-Unc-TgN(FABPCFTR) cystic fibrosis mouse serum at 500 mg/kg, po after 2 hrs; type: ADME, organism-based; set-up: dose 500 mg/kg, route oral; conditions: read-out: Drug uptake
[16] = Drug level in Cftr-tml-Unc-TgN(FABPCFTR) cystic fibrosis mouse serum at 500 mg/kg, po after 4 hrs; type: ADME, organism-based; set-up: dose 500 mg/kg, route oral; conditions: read-out: Drug uptake
[17] = Drug level in Cftr-tml-Unc-TgN(FABPCFTR) cystic fibrosis mouse serum at 500 mg/kg, po after 0.5 hrs; type: ADME, organism-based; set-up: dose 500 mg/kg, route oral; conditions: read-out: Drug uptake
[18] = Drug level in Cftr-tml-Unc-TgN(FABPCFTR) cystic fibrosis mouse serum at 500 mg/kg, po after 1 hr; type: ADME, organism-based; set-up: dose 500 mg/kg, route oral; conditions: read-out: Drug uptake
Mus musculus = organism: Mus musculus; test: Elimination half life in healthy mouse; type: ADME, organism-based; conditions: in vivo
[19] = Elimination half life in Cftr-tml-Unc-TgN(FABPCFTR) cystic fibrosis mouse model at 500 mg/kg, po; type: ADME, organism-based; set-up: dose 500 mg/kg, route oral; conditions: in vivo, read-out: beta t1/2 (converted)
Pseudomonas aeruginosa [20] = test: Antimicrobial activity against Pseudomonas aeruginosa NH57388A mucoid isolate assessed as reduction of viable count in stationary phase at 2 ug/mL after 8 hrs; type: functional
Pseudomonas aeruginosa [21] = test: Antimicrobial activity against Pseudomonas aeruginosa NH57388A mucoid isolate after overnight incubation by E-test; type: functional
Pseudomonas aeruginosa [22] = test: Antimicrobial activity against Pseudomonas aeruginosa NH57388A mucoid isolate assessed as reduction of viable count in stationary phase at 16 ug/mL after 8 hrs; type: functional
Pseudomonas aeruginosa [23] = test: Antimicrobial activity against Pseudomonas aeruginosa NH57388A mucoid isolate assessed as reduction of viable count in exponential phase at 64 ug/mL after 8 hrs; type: functional
Pseudomonas aeruginosa [24] = test: Antimicrobial activity against Pseudomonas aeruginosa NH57388A mucoid isolate assessed as reduction of viable count in exponential phase at 256 ug/mL after 8 hrs; type: functional
Pseudomonas aeruginosa [25] = test: Inhibition of quorum sensing in Pseudomonas aeruginosa NH57388A mucoid isolate harboring GFP-fused […] lasB gene assessed as suppression of GFP expression after 14 hrs by molecular technology; type: functional, organism-based
Pseudomonas aeruginosa [26] = test: Toxicity in Pseudomonas aeruginosa NH57388A mucoid isolate harboring GFP-fused […] lasB gene assessed as growth rate at 2 to 12 ug/mL after 14 hrs by molecular technology relative to control; type: organism-based
Pseudomonas aeruginosa [27] = test: Inhibition of quorum sensing-regulated pyocyanin production in Pseudomonas aeruginosa NH57388A mucoid isolate harboring GFP-fused […] lasB gene assessed as enzyme activity per cell at 8 ug/mL after 24 hrs relative to control; type: functional
Pseudomonas aeruginosa [28] = test: Inhibition of quorum sensing-regulated alginate production in Pseudomonas aeruginosa NH57388A mucoid isolate harboring GFP-fused […] lasB gene assessed as enzyme activity per cell at 2 ug/mL after 24 hrs relative to control; type: functional
Pseudomonas aeruginosa [29] = test: Inhibition of quorum sensing-regulated alginate production in Pseudomonas aeruginosa NH57388A mucoid isolate harboring GFP-fused […] lasB gene assessed as enzyme activity per cell at 4 ug/mL after 24 hrs relative to control; type: functional
Pseudomonas aeruginosa [30] = test: Inhibition of quorum sensing-regulated alginate production in Pseudomonas aeruginosa NH57388A mucoid isolate harboring GFP-fused […] lasB gene assessed as enzyme activity per cell at 8 ug/mL after 24 hrs relative to control; type: functional
Pseudomonas aeruginosa [31] = test: Inhibition of alginate synthesis in Pseudomonas aeruginosa NH57388A mucoid isolate supernatant assessed as uronic acid concentration in inside of dialysis bag after equilibrium dialysis at 12 ug/mL after 24 hrs by carbazole-borate assay; type: functional
Pseudomonas aeruginosa [32] = test: Inhibition of alginate synthesis in Pseudomonas aeruginosa NH57388A mucoid isolate supernatant assessed as uronic acid concentration in outside of dialysis bag after equilibrium dialysis at 12 ug/mL after 24 hrs by carbazole-borate assay; type: functional
Pseudomonas aeruginosa [33] = test: Inhibition of alginate synthesis in Pseudomonas aeruginosa NH57388A mucoid isolate supernatant assessed as uronic acid fraction out of the dialysis bag of total amount of uronic acids after equilibrium dialysis at 12 ug/mL after 24 hrs by carbazole-borate assay; type: functional; set-up: scale not given: the % may be the effect or the level left
Pseudomonas aeruginosa [34] = test: Inhibition of alginate synthesis in Pseudomonas aeruginosa NH57388A mucoid isolate supernatant assessed as uronic acid concentration in dialysis bag before exhaustive dialysis at 12 ug/mL after 24 hrs by carbazole-borate assay; type: functional
Pseudomonas aeruginosa [35] = test: Inhibition of alginate synthesis in Pseudomonas aeruginosa NH57388A mucoid isolate supernatant assessed as uronic acid concentration in dialysis bag after exhaustive dialysis at 12 ug/mL after 24 hrs by carbazole-borate assay; type: functional
Pseudomonas aeruginosa [36] = test: Inhibition of alginate synthesis in Pseudomonas aeruginosa NH57388A mucoid isolate supernatant assessed as uronic acid fraction out of the dialysis bag of total amount of uronic acids after exhaustive dialysis at 12 ug/mL after 24 hrs by carbazole-borate assay; type: functional; set-up: scale not given: the % may be the effect or the level left
Pseudomonas aeruginosa [37] = test: Increase in sensitivity of hydrogen peroxide to Pseudomonas aeruginosa NH57388A mucoid isolate expressing quorum sensing lasI assessed as increase in zone of inhibition at 12 ug/mL after 48 hrs relative to untreated bacterial control; type: functional; set-up: scale not given: the % may be the effect or the level left
Pseudomonas aeruginosa [38] = test: Increase in sensitivity of hydrogen peroxide to quorum sensing lasI-deficient isogenic Pseudomonas aeruginosa NH57388A mucoid isolate mutant assessed as increase in zone of inhibition at 12 ug/mL after 48 hrs relative to untreated bacterial control; type: functional; set-up: scale not given: the % may be the effect or the level left
Pseudomonas aeruginosa [39] = test: Antimicrobial activity against quorum sensing lasI-deficient isogenic Pseudomonas aeruginosa NH57388D mucoid isolate assessed as reduction of viable count at 12 ug/mL in presence of 2.5% human normal serum; type: functional
Pseudomonas aeruginosa [40] = test: Antimicrobial activity against Pseudomonas aeruginosa NH57388A mucoid isolate expressing quorum sensing lasI assessed as reduction of viable count at 12 ug/mL in absence of 2.5% human normal serum; type: functional
Pseudomonas aeruginosa [41] = test: Antimicrobial activity against quorum sensing lasI-deficient isogenic Pseudomonas aeruginosa NH57388D mucoid isolate assessed as reduction of viable count at 12 ug/mL in absence of 2.5% human normal serum; type: functional
Pseudomonas aeruginosa [42] = test: Antimicrobial activity against Pseudomonas aeruginosa NH57388C nonmucoid isolate expressing quorum sensing lasI assessed as reduction of viable count at 12 ug/mL in absence of 2.5% human normal serum; type: functional
Pseudomonas aeruginosa [43] = test: Antimicrobial activity against quorum sensing lasI-deficient isogenic Pseudomonas aeruginosa NH57388E nonmucoid isolate assessed as reduction of viable count at 12 ug/mL in absence of 2.5% human normal serum; type: functional
Pseudomonas aeruginosa [44] = test: Antimicrobial activity against Pseudomonas aeruginosa NH57388A mucoid isolate expressing quorum sensing lasI assessed as reduction of viable count at 12 ug/mL in presence of 2.5% human normal serum; type: functional
Pseudomonas aeruginosa [45] = test: Antimicrobial activity against Pseudomonas aeruginosa NH57388C nonmucoid isolate expressing quorum sensing lasI assessed as reduction of viable count at 12 ug/mL in presence of 2.5% human normal serum; type: functional
Pseudomonas aeruginosa [46] = test: Antimicrobial activity against quorum sensing lasI-deficient isogenic nonmucoid Pseudomonas aeruginosa NH57388E mutant assessed as reduction of viable count at 12 ug/mL in presence of 2.5% human normal serum; type: functional
[47] = Elimination half life in human; type: ADME, organism-based; conditions: in vivo, read-out: beta t1/2 (converted)
Pseudomonas aeruginosa [48] = test: Antimicrobial activity against Pseudomonas aeruginosa NH57388A mucoid isolate harboring GFP-fused […] lasB gene infected in ftr-tml-Unc-TgN(FABPCFTR) cystic fibrosis mouse lungs assessed as reduction in GFP signal at 250 mg/kg, iv administered 24 hrs after infection measured after 24 hrs; type: functional, organism-based; set-up: dose 250 mg/kg

CC[C@H]1OC(=O)[C@H](C)[C@@H](O[C@H]2C[C@@](C)(OC)[C@@H](O)[C@H](C)O2)[C@H](C)[C@@H](O[C@@H]2O[C@H](C)C[C@H](N(C)C)[C@H]2O)[C@](C)(O)C[C@@H](C)CN(C)[C@H](C)[C@@H](O)[C@]1(C)O [AZITHROMYCIN]
inhibition at 2 µg/mL (Pseudomonas aeruginosa [1]): 77% | inhibition at 4 µg/mL (Pseudomonas aeruginosa [2]): 45% | inhibition at 8 µg/mL (Pseudomonas aeruginosa [3]): 51% | inhibition at 2 µg/mL (Pseudomonas aeruginosa [4]): 66% | inhibition at 4 µg/mL (Pseudomonas aeruginosa [5]): 15% | inhibition at 8 µg/mL (Pseudomonas aeruginosa [6]): 10% | inhibition at 2 µg/mL (Pseudomonas aeruginosa [7]): 43% | inhibition at 4 µg/mL (Pseudomonas aeruginosa [8]): 32% | Activity (Pseudomonas aeruginosa [9]): 24% | Activity (Pseudomonas aeruginosa [10]): 10 µg/mL | Activity (Pseudomonas aeruginosa [11]): 32% | Activity (Pseudomonas aeruginosa [12]): Active | Activity (Pseudomonas aeruginosa [13]): Active | Activity (Pseudomonas aeruginosa [14]): Active | concentration at 2 h [15]: 3100 ng/mL | concentration at 4 h [16]: 1700 ng/mL | concentration at 0.5 h [17]: 2900 ng/mL | concentration at 1 h [18]: 2900 ng/mL | beta t1/2 (Mus musculus): 0.733 h | half-life [19]: 2.3 h | Activity (Pseudomonas aeruginosa [20]): 88% | MIC (Pseudomonas aeruginosa [21]): > 256 µg/mL | Activity (Pseudomonas aeruginosa [22]): 99% | Activity (Pseudomonas aeruginosa [23]): 87% | Activity (Pseudomonas aeruginosa [24]): 99% | Activity (Pseudomonas aeruginosa [25]): Dose-dependent effect | Activity (Pseudomonas aeruginosa [26]): Non-toxic | inhibition at 8 µg/mL (Pseudomonas aeruginosa [27]): 16% | inhibition at 2 µg/mL (Pseudomonas aeruginosa [28]): 63% | inhibition at 4 µg/mL (Pseudomonas aeruginosa [29]): 56% | inhibition at 8 µg/mL (Pseudomonas aeruginosa [30]): 52% | Activity (Pseudomonas aeruginosa [31]): 316 µg/mL | Activity (Pseudomonas aeruginosa [32]): 143 µg/mL | Activity (Pseudomonas aeruginosa [33]): 31.2% | Activity (Pseudomonas aeruginosa [34]): 316 µg/mL | Activity (Pseudomonas aeruginosa [35]): 103 µg/mL | Activity (Pseudomonas aeruginosa [36]): 67.4% | Activity (Pseudomonas aeruginosa [37]): 31% | Activity (Pseudomonas aeruginosa [38]): 43% | CFU (Pseudomonas aeruginosa [39]): 8.6 ×10⁵ /ml | CFU (Pseudomonas aeruginosa [40]): 31 ×10⁶ /ml | CFU (Pseudomonas aeruginosa [41]): 55 ×10⁶ /ml | CFU (Pseudomonas aeruginosa [42]): 110 ×10⁵ /ml | CFU (Pseudomonas aeruginosa [43]): 3.8 ×10⁷ /ml | CFU (Pseudomonas aeruginosa [44]): 2.5 ×10² /ml | CFU (Pseudomonas aeruginosa [45]): 0 mL | CFU (Pseudomonas aeruginosa [46]): 2 ×10³ /ml | half-life [47]: 68 h | Activity (Pseudomonas aeruginosa [48]): Active
